Reference: ChEMBL document CHEMBL1139188, “Identification of diamino chromone-2-carboxamides as MCHr1 antagonists with minimal hERG channel activity” (Bioorg Med Chem Lett, 2007)

Assays:
[1] = molecular target: Voltage-gated inwardly rectifying potassium channel KCNH2 (Homo sapiens, UniProt Q12809)
Description: Displacement of [3H]dofetilide from hERG expressed in HEK293 cell membrane

[2] = Drug level in DIO mouse plasma at 10 mg/kg, po after 12 hrs; type: ADME, organism-based; design: dose 10 mg/kg, route oral
[3] = Drug level in DIO mouse brain at 10 mg/kg, po after 12 hrs; type: ADME, organism-based; design: dose 10 mg/kg, route oral; details: read-out: Drug uptake
[4] = Cmax in DIO mouse brain at 10 mg/kg, po; type: ADME, organism-based; design: dose 10 mg/kg, route oral
Mus musculus = test: AUC (0 to infinity) in DIO mouse brain at 10 mg/kg, po; type: ADME, organism-based; design: time infinity, dose 10 mg/kg, route oral; details: in vivo
[5] = Half life in DIO mouse plasma at 10 mg/kg, po; type: ADME, organism-based; design: dose 10 mg/kg, route oral
[6] = AUC (0 to infinity) in DIO mouse plasma at 10 mg/kg, po; type: ADME, organism-based; design: time infinity, dose 10 mg/kg, route oral
[7] = Half life in DIO mouse brain at 10 mg/kg, po; type: ADME, organism-based; design: dose 10 mg/kg, route oral
hERG (KCNH2) = hERG (KCNH2) (Homo sapiens, UniProt Q12809); test: Inhibition of hERG-mediated tail current expressed in HEK293 cells at 30 uM by patch clamp method; type: toxicity, cell-based; details: HEK293 cells that express hERG
hERG (KCNH2), sequence (Q12809 whole entry): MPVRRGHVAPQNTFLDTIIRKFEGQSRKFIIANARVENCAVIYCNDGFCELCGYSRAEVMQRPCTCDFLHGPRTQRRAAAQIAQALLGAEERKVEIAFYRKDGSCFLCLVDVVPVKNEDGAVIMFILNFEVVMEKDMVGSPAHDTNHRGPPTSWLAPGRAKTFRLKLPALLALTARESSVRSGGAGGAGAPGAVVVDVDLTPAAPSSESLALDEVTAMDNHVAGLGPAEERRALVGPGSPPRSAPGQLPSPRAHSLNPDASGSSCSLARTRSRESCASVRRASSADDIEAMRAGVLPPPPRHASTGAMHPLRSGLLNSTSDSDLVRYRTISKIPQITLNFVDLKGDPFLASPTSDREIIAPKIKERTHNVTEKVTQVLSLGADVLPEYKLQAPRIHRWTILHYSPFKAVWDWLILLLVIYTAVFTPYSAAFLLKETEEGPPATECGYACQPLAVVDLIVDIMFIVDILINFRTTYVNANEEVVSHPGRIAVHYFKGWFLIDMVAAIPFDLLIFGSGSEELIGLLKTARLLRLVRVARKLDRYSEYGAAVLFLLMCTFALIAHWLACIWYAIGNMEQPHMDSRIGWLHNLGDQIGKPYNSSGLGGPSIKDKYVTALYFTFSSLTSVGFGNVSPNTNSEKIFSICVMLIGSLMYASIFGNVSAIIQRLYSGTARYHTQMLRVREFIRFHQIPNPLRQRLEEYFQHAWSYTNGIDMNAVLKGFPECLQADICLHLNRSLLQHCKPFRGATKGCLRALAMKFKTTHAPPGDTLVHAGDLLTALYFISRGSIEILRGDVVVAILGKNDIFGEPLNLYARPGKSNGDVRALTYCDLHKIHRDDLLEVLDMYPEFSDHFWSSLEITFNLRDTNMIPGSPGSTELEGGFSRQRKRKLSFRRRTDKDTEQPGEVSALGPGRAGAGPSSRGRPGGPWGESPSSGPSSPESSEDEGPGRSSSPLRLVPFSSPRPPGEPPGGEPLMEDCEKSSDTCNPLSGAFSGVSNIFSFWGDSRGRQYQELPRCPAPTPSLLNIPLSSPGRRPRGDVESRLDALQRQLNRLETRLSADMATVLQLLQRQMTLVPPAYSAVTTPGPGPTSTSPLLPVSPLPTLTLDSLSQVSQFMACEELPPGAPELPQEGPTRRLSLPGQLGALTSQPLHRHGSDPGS

[8] = Cmax in DIO mouse plasma at 10 mg/kg, po; type: ADME, organism-based; design: dose 10 mg/kg, route oral

Voltage-gated inwardly rectifying potassium channel KCNH2, sequence (Q12809 whole entry): as above

Question: For O=C(NC1CCN(Cc2ccc(OCCCN3C(=O)CSC3=O)c(F)c2)CC1)c1cc(=O)c2ccc(F)cc2o1, which IC50 [1] is on record?
Answer: 8.5 µM

Question: With O=C(NC1CCN(Cc2ccc(C(=O)NCCN3CCCC3)c(F)c2)CC1)c1cc(=O)c2ccc(F)cc2o1 as the compound, how does the concentration at 12 h [2] read?
Answer: 38 ng/mL

Question: And the IC50 [1]?
Answer: > 100 µM

Question: And the concentration at 12 h [3]?
Answer: 75 ng/g

Question: And the Cmax [4]?
Answer: 185 ng/g

Question: And the AUC (Mus musculus)?
Answer: 1378 ng·h/g

Question: And the half-life [5]?
Answer: 2 h

Question: What about the AUC(0-inf) [6] of the same compound?
Answer: 3150 ng·h/mL

Question: And the half-life [7]?
Answer: 8 h

Question: What about the inhibition at 30 µM (hERG (KCNH2)) of the same compound?
Answer: 21%

Question: And the Cmax [8]?
Answer: 598 ng/mL

Question: Which IC50 [1] does the source give for O=C(NCCN1CCCC1)c1ccc(CN2CCC(NC(=O)c3cc(=O)c4ccc(F)cc4o3)CC2)c(Cl)c1 here?
Answer: 11 µM

Question: For COc1cc(C(=O)NCCN2CCCC2)ccc1CN1CCC(NC(=O)c2cc(=O)c3ccc(F)cc3o2)CC1, which IC50 [1] is on record?
Answer: 6.6 µM

Question: With O=C(CCN1CCCCC1)Nc1ccc(CN2CCC(NC(=O)c3cc(=O)c4ccc(F)cc4o3)CC2)cc1F as the compound, how does the IC50 [1] read?
Answer: 9.18 µM

Question: With COC(C)(C)CCOc1ccc(CN2CCC(NC(=O)c3cc(=O)c4ccc(F)cc4o3)CC2)cc1 as the compound, how does the IC50 [1] read?
Answer: 4.3 µM
